For 89 compounds, melting point results are on record in a melting point compilation (Tetko et al.; mined from patent text by program, amines drawn as free bases though some values may be those of a salt).

Structures are written as SMILES.

A word on the melting point: it is the temperature of the solid-liquid transition. `CSc1ccccc1C(=N)N1CCN(CCc2cc3c(cc2Cl)NC(=O)C3)CC1` returned a melting point of 103 to 106 °C.

`N#CSc1cc2sc(NC(=O)C3CC3)nc2cc1F` yielded a melting point of 256 °C.

Compound `COc1ccc(-n2cc(C3(O)CN4CCC3CC4)nn2)cc1` (centres undefined) yielded a melting point of 174 °C.

Turning to `COc1nc(Cl)ccc1C=O`, the melting point lay within 62 to 64 °C.

With `O=C(O)c1cc(C#Cc2ccc(C(=O)O)c(C(=O)O)c2)cc(C(=O)O)n1`, the melting point is more than 300 °C.

`CC(C)C(C)Nc1c(NCc2ccc(C#N)cc2)c(=O)c1=O` (centres undefined) came in with a melting point of 257 to 260 °C.

In turn, `COC1=C(OC)C(=O)C2=C(CCC(CCOc3ccccc3)CC2)C1=O` displayed a melting point of 71 to 72 °C.

In turn, `Cn1c(C(=O)O)ccc1C(=O)c1ccccc1` had a melting point of 178 to 181 °C.

`CCOC(=O)C1=C(COCC(C)=O)NC(C)=C(C(=O)OC)C1c1cccc(Cl)c1Cl` (centres undefined) had a melting point of 117 to 119 °C.

Compound `CC1CCc2cc3c(cc21)OCC(=O)CO3` (centres undefined) gave a melting point of 79 to 80 °C.

The compound `COc1ccc(C(=O)Nc2c(Cl)cncc2Cl)cc1O` showed a melting point of 227 to 228 °C.

As to `COc1cccc2c(CC(=O)O)coc12`, the melting point was in the range of 143 to 145 °C.

For `COc1ccc(CCCOc2c(C)cc(-c3noc(C)n3)cc2C)cn1`, the melting point is 71 to 73 °C.

Turning to `CS(=O)(=O)c1ccc(-c2cnn(CC(F)(F)F)c(=O)c2Nc2ccc(F)cc2)cc1`, the melting point lay within 158 to 160 °C.

`NNC(=O)c1cc(Cl)c(O)cc1O` had a melting point of 260 °C.

In turn, `C=C1C(=O)N(C)CCC1(O)c1cccc(OC)c1` (centres undefined) had a melting point of 127 to 128 °C.

Turning to `O=c1[nH]c(=O)n(C2CC(O)C(CO)O2)cc1C(I)=CI` (centres undefined), the melting point was in the range of 103 to 105 °C.

`CCCCCCCCCCCCCC/C=C\CN1C(=O)c2ccccc2C1=O` returned a melting point of 56 to 60 °C.

`Cc1nc(COc2cccc(Cl)c2C)no1` showed a melting point of 69 °C.

`O=C1NC(=S)C(c2c[nH]c3ccccc23)=C1c1c[nH]c2ccccc12` registered a melting point of 254 to 257 °C.

With `COc1ccc(CN2C(=O)C(C)(c3cc(C(=O)N(C)CC(F)(F)F)ccc3Cl)c3cc(Cl)ccc32)c(OC)c1` (centres undefined), the melting point turned out to be 89 °C.

On to `COc1ccc(OCC(O)CN2CCC3(CC2)CNC(=O)O3)cc1` (centres undefined), for which the melting point is 151 to 153 °C.

`CCC(=O)C1=C(O)CC(c2cc3ccccc3cc2C)CC1=O` (centres undefined): the melting point was determined as 118 °C.

Compound `CC(C)c1cc(Cl)cc(C(C)C)c1NC(=O)NS(=O)(=O)c1cccc(C2(C)OCCO2)c1` registered a melting point of 155 to 157 °C.

On to `c1cc(-c2nccs2)nc(C2OCCO2)c1`, for which the melting point is 71 °C.

Compound `O=C(O)c1ccc(COCc2csc3nc(C(=O)NCc4cccc(Cl)c4)[nH]c(=O)c23)cc1` had a melting point of 236 to 238 °C.

Compound `Cc1cc(O)c(S(=O)C(C)(C)C)c(=O)o1` (centres undefined) showed a melting point of 119 °C.

Regarding `CCc1c(C2=NC(C)(C)CO2)ccc(C2=NC(C)(C)CO2)c1CC`, the melting point lay within 49 to 50 °C.

In turn, `OCC1Cc2c(c(Cl)cc3c(-c4c(F)cccc4F)noc23)O1` (centres undefined) registered a melting point of 166 to 169 °C.

`Cc1cc(NC(=O)NC(=O)c2c(Cl)cccc2Cl)cnc1-c1ccccc1` had a melting point of 202 to 205 °C.

In turn, `OC(CCN1CC=C(c2ccccc2)CC1)c1ccc(CCc2ccc(Cl)cc2)cc1` (centres undefined) returned a melting point of 158 to 160 °C.

Turning to `CCc1noc(NC(C)=O)c1Cl`, the melting point fell in the range of 113 to 114 °C.

Compound `CC(C)(C)ON(O)C(=O)C(C)(C)CSc1ccc(Oc2ccc(Cl)cn2)cc1` came in with a melting point of 90.8 to 91.9 °C.

`OCc1ccc(C2=C(C3CCCC3)CCC2=NO)cc1`: the melting point lay in the range of 187 to 190 °C.

`N#Cc1cc(-c2ccoc2)c2ccc(OCc3cccc(-c4ccc(Cl)cc4)n3)cc2c1` registered a melting point of 174 to 177 °C.

For the compound `N#CC(C#N)=C1N(CCCN2CCCCC2)CCN1CCN1CCCC1`, the melting point lay in the range of 63 to 64 °C.

Compound `CCOC(=O)C1[C@H]2O[C@@H]3COC(C)(C)O[C@H]3C(=NO)[C@@H]12` (some centres undefined) yielded a melting point of 210 to 213 °C.

Consider `CC(CCCO)C1CCC2C3C(O)CC4CC(O)CCC4(C)C3CCC12C` (centres undefined), for which the melting point was in the range of 116 to 118 °C.

With `Cc1nc(COc2cc(-n3c(=O)cc(C(F)(F)F)n(C)c3=O)c(F)cc2Cl)cs1`, the melting point lay within 145 to 147 °C.

Consider `Cc1cc(N2CN=C(C(F)(F)F)O2)cc(C)c1OCCCc1ccc(C(C)(F)F)nn1`, for which the melting point worked out at 54.5 °C.

The compound `COc1cc(N)c(Cl)cc1C(=O)N[C@H]1CCN(CCNC(=O)c2ccc(F)cc2)C[C@H]1OC` (relative stereo) displayed a melting point of 209 °C.

For the compound `O=C(O)c1ccc(NC(=O)c2ccc(F)cc2)cc1`, the melting point is more than 300 °C.

For `O=C(Nc1ccccc1Oc1ccc(Cl)cc1Cl)C1CCN(S(=O)(=O)c2cc(Cl)ccc2Cl)CC1`, the melting point was in the range of 194 to 196 °C.

`CCn1c(=O)c2[nH]c(C(C)C)nc2n(Cc2ccc(Cl)cc2)c1=O` came in with a melting point of 221 to 222 °C.

In the case of `COc1ccc(CC(=O)NO[C@@H](C)c2ccccc2)cc1`, the melting point was 60 to 61 °C.

In turn, `O=C1CCCc2nc(C#Cc3cccnc3)ccc21` returned a melting point of 120 to 122 °C.

As to `O=C(NC(Cc1c[nH]c2ccccc12)C(=O)OCc1ccccc1C(F)(F)F)c1ccccc1` (centres undefined), the melting point came out at 117 °C.

With `Cc1ccsc1C(=O)c1sc(Nc2ccc(S(N)(=O)=O)cc2)nc1N`, the melting point fell in the range of 284 to 286 °C.

As for `C/C=C/c1cc(OC)c2c(c1)[C@@H](C)[C@H](c1cc(CO)c(O)c(OC)c1)O2` (relative stereo), the melting point was in the range of 117 to 119 °C.

For the compound `CC[C@H](CCC(=O)OC(C)(C)C)C(=O)N[C@@H](Cc1ccccc1)C(=O)OC`, the melting point lay within 120 to 121 °C.

The compound `COc1ccc(-c2nc(CO)c[nH]2)cc1OC1CCCC1` yielded a melting point of 188 to 190 °C.

`BrCc1ccc2ccccc2c1Br` yielded a melting point of 106 to 108 °C.

As to `COc1cccc(C2=C(CC(C)N3CCCCC3)C(=O)N(C)CCC2)c1` (centres undefined), the melting point fell in the range of 101 to 103 °C.

In turn, `CC(C)(C)OCOc1cc(NC(=O)NC(=O)c2ccc(C#N)cc2)ccc1OCC(=O)OC(C)(C)C` registered a melting point of 161 to 162 °C.

`CNc1ccc(-c2ocnc2-c2cc(OC)cc(OC)c2)cc1F`: the melting point is 140 to 142 °C.

As for `Clc1ccc2c(c1)C(c1ccccc1Cl)=NCc1cncnc1-2`, the melting point is 120 to 121 °C.

As to `COc1ccc(-n2cc(C(=O)O)c(=O)c3cc(F)c(F)c(F)c32)cc1`, the melting point lay within 252 to 254 °C.

For the compound `O=C1CCC(c2ccccc2)(c2ccccc2)[C@@H]2CN(C(=O)Cc3ccccc3N3CCOCC3)C[C@H]12` (racemic), the melting point was found to be 167 °C.

As for `COC(=O)c1ccc2cc(OCc3ccccc3)ccc2c1`, the melting point lay in the range of 148 to 149 °C.

Consider `COc1cc2c(c(OC(C)=O)c1)C1CCC3(C)C(O)CCC3C1CC2` (centres undefined), for which the melting point was 107 to 110 °C.

Compound `O=P(Cc1ccc(O)cc1)(c1ccccc1)c1ccccc1` showed a melting point of 125 °C.

Consider `NC(=O)c1c(N2CCN(Cc3ccccc3)CC2)nn2c(-c3cccc(C(F)(F)F)c3)ccnc12`, for which the melting point lay in the range of 252 to 254 °C.

`O=C(O)c1cn(C2CC2)c2c(F)c(N3CCC4(C3)OCCCO4)c(F)cc2c1=O`: the melting point is 226 to 227 °C.

The compound `COc1ccc2oc(C)c(Cc3cccc(NS(=O)(=O)C(F)(F)F)c3)c(=O)c2c1` displayed a melting point of 172 to 174 °C.

Consider `CCOC(=O)c1c2n(c3cc(N4CCNCC4)c(F)cc3c1=O)C(C)S2` (centres undefined), for which the melting point was 224 °C.

For `O=C(Nc1ccc2ccc(Oc3ccccc3)nc2n1)c1cccc(Br)c1`, the melting point amounted to 194 °C.

Turning to `CCOc1cc2nc(S(=O)c3ccccc3-c3ccccn3)[nH]c2cc1OCC` (centres undefined), the melting point lay in the range of 194 to 195 °C.

`CCC(C)n1ccnc1S` (centres undefined): the melting point was in the range of 108 to 121 °C.

In turn, `NC(=S)c1cc2c(cn1)[nH]c1ccccc12` displayed a melting point of 274 to 276 °C.

Take `COC(=O)C1CC(C#N)(c2ccccc2)CCC1=O` (centres undefined): the melting point was in the range of 75 to 80 °C.

The compound `CC(=O)OC1CSC(Oc2cncc(-c3ccc(OC(C)C)cc3)c2)C(OC(C)=O)C1OC(C)=O` (centres undefined) registered a melting point of 135 °C.

Consider `O=C(O)CCCC=C(c1ccccc1)c1ccccc1`, for which the melting point was 111 to 112 °C.

Compound `COc1ccc(C(=O)NCCc2ccccc2)cc1OC` had a melting point of 123 to 124 °C.

Regarding `CCc1ccc(CCOc2ccc([N+](=O)[O-])cc2)nc1`, the melting point lay within 53 to 54 °C.

Regarding `C=Cc1ncn2c1[C@@H]1CCN1C(=O)c1c(Cl)cccc1-2`, the melting point was in the range of 171 to 172 °C.

In turn, `CCOc1ccc(-c2cc(C(F)(F)F)n3cnc(-c4ccncc4)c3n2)cc1C(F)(F)F` gave a melting point of 244 °C.

Compound `CNC(=O)C(Cc1ccccc1)NC(=O)C(CC(C)C)C(S)CC(=O)OC` (centres undefined) yielded a melting point of 169 to 171 °C.

Turning to `Cc1cc2c(cc1Cl)C=C(C(=O)O)C(C(F)(F)F)O2` (centres undefined), the melting point lay within 208 to 209 °C.

`CC1=C(C(=O)OC(C)C)C(c2cccc(Cl)c2)N(C(=O)Oc2ccc([N+](=O)[O-])cc2)CN1` (centres undefined): the melting point lay within 165 to 167 °C.

Turning to `CCn1c(C)nc2c(C(=O)OC)c(C(=O)OC)ccc21`, the melting point is 127 to 128 °C.

As for `Cc1nc(-c2ccsc2)c2nc(-c3ccccc3)cc-2[nH]1`, the melting point fell in the range of 232 to 233 °C.

`CCCCC1C(C(=O)OCC)C(O)(C(F)(F)F)NC(O)(C(F)(F)F)C1C(=O)OCC` (centres undefined) yielded a melting point of 77 to 80 °C.

The compound `COC(=O)c1ccc2c(c1)C(Oc1ccccn1)C(O)C(C)(C)O2` (centres undefined) showed a melting point of 202 to 204 °C.

Regarding `CCOC(=O)c1nc(NC)sc1-c1nc2ccc(C)cn2c1C`, the melting point was 225 to 227 °C.

The compound `NC(=O)CNC(=O)c1cccc(-c2ccc3c(n2)N(Cc2ccc(Cl)cc2Cl)CC3)c1` registered a melting point of 183 to 184 °C.

Compound `O=C(O)CCC(=O)c1ccc(NC(=O)C2CC2)cc1` displayed a melting point of 229 to 230 °C.

Regarding `O=c1c2c(cc3n1CCCS3)CCCC2`, the melting point fell in the range of 123 to 124 °C.

Take `CC(C)(C)OC(=O)N1CCc2ccc(Nc3nc4c(-c5cc(C(F)(F)F)ccc5Cl)cccn4n3)cc2CC1`: the melting point lay in the range of 88 to 89 °C.

Compound `CCc1noc(-c2ccccc2)c1-c1ccc(S(N)(=O)=O)cc1` gave a melting point of 167 °C.
